Measurements from US7772241B2, “Variolin derivatives and their use as antitumor agents” (Pharma Mar S.A., priority 2001, dated 2010).
Read-outs that look alike come from different tables or passages of the source.

Experiments:
HT-29 = assay: Inhibition of cells growth by colorimetric (SRB) assay, HT-29; settings: for GI50 / CC50: Homo sapiens, HT-29, 48 h; for TGI HT-29 / HT-29 TGI: SRB assay, 48 hours exposure
Outline: (§1)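 Read-out is sulforhodamine B protein stain (OD 490 nm) after cold TCA fixation, following 48 h continuous exposure to samples spanning 10 to 10^−8 μg/ml.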

[1] = Inhibition of cells growth by colorimetric (SRB) assay, HMEC1; settings: human, HMEC1 cells, 48 hours exposure
Description: (§2) The finality of these assays is to interrupt the growth of a “in vitro” tumor cell culture by means a continued exhibition of the cells to the sample to be testing.
(§3) This form of the assay employs 96 well cell culture microplates of 9 mm diameter (Faircloth, 1988; Mosmann, 1983). Most of the cell lines are obtained from American Type Culture Collection (ATCC) derived from different human cancer types.
(§4) Cells are maintained in RPMI 1640 10% FBS, supplemented with 0.1 g/l penicillin and 0.1 g/l streptomycin sulphate and then incubated at 37° C., 5% CO2 and 98% humidity. For the experiments, cells were harvested from subconfluent cultures using trypsin and resuspended in fresh medium before plating.
(§5) Cells are seeded in 96 well microtiter plates, at 5×10^3 cells per well in aliquots of 195 μl medium, and they are allowed to attach to the plate surface by growing in drug free medium for 18 hours. Afterward, samples are added in aliquots of 5 μl in a ranging from 10 to 10^−8 μg/ml, dissolved in DMSO/EtOH/PBS (0.5:0.5:99). After 48 hours exposure, the antitumor effect are measured by the SRB methodology: cells are fixed by adding 50 μl of cold 50% (wt/vol) trichloroacetic acid (TCA) and incubating for 60 minutes at 4° C. Plates are washed with deionized water and dried. One hundred μl of SRB solution (0.4% wt/vol in 1% acetic acid) is added to each microtiter well and incubated for 10 minutes at room temperature. Unbound SRB is removed by washing with 1% acetic acid. Plates are air dried and bound stain is solubilized with Tris buffer. Optical densities are read on a automated spectrophotometric plate reader at a single wavelength of 490 nm.
(§6) The values for mean +/−SD of data from triplicate wells are calculated. Some parameters for cellular responses can be calculated: GI=growth inhibition, TGI=total growth inhibition (cytostatic effect) and LC=cell killing (cytotoxic effect).

HMEC1 = assay: as above; settings: for GI50: Homo sapiens, HMEC-1, 48 h; for TGI H-MEC-1 / H-MEC-1 TGI: SRB assay, 48 hours exposure, in M (unit assumed)
Description: as §2, §3, §4, §5, §6

A-549 = assay: Inhibition of cells growth by colorimetric (SRB) assay, A-549; settings: for GI50 / CC50: Homo sapiens, A549, 48 h; for TGI A-549 / A-549 TGI: SRB assay, 48 hours exposure
Outline: as §1

[2] = read-out: GI50 HT-29, SRB assay, 48 hours exposure
[3] = read-out: LC50 HT-29, SRB assay, 48 hours exposure
[4] = read-out: GI50 H-MEC-1, SRB assay, 48 hours exposure
[5] = read-out: GI50 A-549, SRB assay, 48 hours exposure
[6] = read-out: LC50 A-549, SRB assay, 48 hours exposure
[7] = read-out: HT-29 GI50, SRB assay, 48 hours exposure
[8] = read-out: HT-29 LC50, SRB assay, 48 hours exposure
[9] = read-out: A-549 LC50, SRB assay, 48 hours exposure
[10] = read-out: H-MEC-1 GI50, SRB assay, 48 hours exposure
[11] = read-out: A-549 GI50, SRB assay, 48 hours exposure

Row | GI50 (HT-29; [2]) [µM] | GI50 (A-549; [5]) [µM] | GI50 (HT-29; [7]) [µM] | GI50 (A-549; [11]) [µM] | SMILES | CC50 (HT-29; [3]) [µM] | TGI HT-29 (HT-29) | CC50 at 48 h ([1]; LC50 H-MEC-1, SRB assay) [µM] | GI50 (HMEC1; [4]) [µM] | TGI H-MEC-1 (HMEC1) | CC50 (A-549; [6]) [µM] | TGI A-549 (A-549) | CC50 (HT-29; [8]) [µM] | HT-29 TGI (HT-29) | CC50 (A-549; [9]) [µM] | A-549 TGI (A-549) | CC50 at 48 h ([1]; H-MEC-1 LC50, SRB assay) [µM] | GI50 (HMEC1; [10]) [µM] | H-MEC-1 TGI (HMEC1)
1 | 20.4 | 17.2 |  |  | CSc1nccc(-c2c3cc(Cl)cnc3n3c(SC)nccc23)n1 [Compound 47] | 26.7 | 2.67E−05 | 26.7 | 26.7 | 2.67E−05 | 26.7 | 2.67E−05 |  |  |  |  |  |  | 
2 | 25.5 | 25.5 |  |  | CSc1nccc(-c2c3cc(F)c(Cl)nc3n3c(SC)nccc23)n1 [Compound 48] | 25.5 | 2.55E−05 | 25.5 | 25.5 | 2.55E−05 | 25.5 | 2.55E−05 |  |  |  |  |  |  | 
3 |  | 22.5 | 31.1 |  | COc1cccc(-c2c3cccnc3n3c(SC)nccc23)c1 [Compound 57] |  |  | 31.1 | 31.1 | 3.11E−05 |  |  | 31.1 | 3.11E−05 | 31.1 | 3.11E−05 |  |  | 
4 |  | ≥ 34.3 | ≥ 34.3 |  | CSc1nccc2c(-c3ccccc3)c3cccnc3n12 [Compound 58] |  |  | ≥ 34.3 | ≥ 34.3 | 3.43E−05 |  |  | ≥ 34.3 | 3.43E−05 | ≥ 34.3 | 3.43E−05 |  |  | 
5 |  |  | 29.7 | 29.7 | CSc1nccc2c(-c3cccc([N+](=O)[O-])c3)c3cccnc3n12 [Compound 59] |  |  |  |  |  |  |  | 29.7 | 2.97E−05 | 29.7 | 2.97E−05 | 29.7 | 29.7 | 2.97E−05
6 |  |  | ≥ 38.4 | ≥ 38.4 | Nc1nccc2c(-c3ccccc3)c3cccnc3n12 [Compound 63] |  |  |  |  |  |  |  | ≥ 38.4 | 3.84E−05 | ≥ 38.4 | 3.84E−05 | ≥ 38.4 | ≥ 38.4 | 3.84E−05
7 |  | 30.6 | 30.6 |  | COc1cccc(-c2c3cccnc3n3c(N)nccc23)c1.Cl [Compound 67] |  |  | 30.6 | 30.6 | 3.06E−05 |  |  | 30.6 | 3.06E−05 | 30.6 | 3.06E−05 |  |  | 
